# Data published in US11536729B2, “Method of identifying novel protein aggregation inhibitors based on chemical kinetics” (Cambridge Enterprise Limited, priority 2016, dated 2022).
# Entries after “also recorded” stand apart in the source; their conditions may differ.
# Columns and labels:
# Aβ42 = biological target: T1, Aβ42 (Homo sapiens, UniProt P05067); assay: ThT-based Aβ42 aggregation kinetics under quiescent (unseeded) conditions; format: biochemical
# T1 construct: The recombinant Aβ (M1-42) peptide; made in house; host or cells: E. coli BL21 Gold (DE3)
# T1 sequence (P05067 671-713): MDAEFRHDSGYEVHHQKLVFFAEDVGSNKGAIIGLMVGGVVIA
# Procedure: Solutions of monomeric peptides were prepared by dissolving the lyophilized Aβ42 peptide in 6 M GuHCl. Monomeric forms were purified from potential oligomeric species and salt using a Superdex 75 10/300 GL column (GE Healthcare) at a flowrate of 0.5 mL/min, and were eluted in 20 mM sodium phosphate buffer, pH 8 supplemented with 200 μM EDTA and 0.02% NaN3. The center of the peak was collected and the peptide concentration was determined from the absorbance of the integrated peak area using ε280=1400 l mol^−1 cm^−1. The obtained monomer was diluted with buffer to the desired concentration and supplemented with 20 μM Thioflavin T (ThT) from a 1 mM stock. All samples were prepared in low binding eppendorf tubes on ice using careful pipetting to avoid introduction of air bubbles. Each sample was then pipetted into multiple wells of a 96-well half-area, low-binding, clear bottom and PEG coating plate (Corning 3881), 80 μL per well.
# We verified that the addition of 1% DMSO in the reaction mixture has no effect on Aβ42 aggregation.
# Assays were initiated by placing the 96-well plate at 37° C. under quiescent conditions in a plate reader (Fluostar Omega, Fluostar Optima or Fluostar Galaxy, BMGLabtech, Offenburg, Germany). The ThT fluorescence was measured through the bottom of the plate with a 440 nm excitation filter and a 480 nm emission filter. The ThT fluorescence was followed for three repeats of each sample.
# The time evolution of the total fibril mass concentration, M(t), is described by the following integrated rate law (30, 32)
# (§1) [formula] where the kinetic parameters B±, C±, κ, κ∞ and ? are functions of the two ? combinations of the microscopic rate constants k+k2 and knk2, where kn, k+ and k2 are the primary nucleation, elongation and secondary nucleation rate constants, respectively.
# The time evolution of the total fibril mass concentration, M(t), is described by the following integrated rate law
# as §1, with “two” for “two ?”, “respectively. Aβ42 alone in 1% DMSO was first modeled to obtain the k+k2 and knk2 combined microscopic rate constants.” for “respectively.”
# With the introduction of different small molecules, the aggregation process can be inhibited by one or more individual microscopic reactions. Microscopic rate constants k+k2 and knk2 were obtained in the presence of the molecules, and compared to the initial values of Aβ42 alone. This comparison allows one to understand which rate was mainly perturbed, as well as the potency of the compounds (by relative changes of their microscopic rates) with respect to each other.
# [1] = test system: C. elegans GMC101 (Aβ-worm); assay: C. elegans motility assay (body bends), Aβ-worm model; format: in vivo, Caenorhabditis elegans
# Procedure: (§2) Standard conditions were used for Caenorhabditis elegans propagation at 20° C. (53). Briefly, animals were synchronized by hypochlorite bleaching, hatched overnight in M9 buffer, and subsequently cultured on nematode growth medium (NGM, USP agar) plates seeded with the E. coli strain OP50. Saturated cultures of OP50 were grown by inoculating 50 mL of LB medium with OP50 and incubating the culture for 16 h at 37° C. NGM plates were seeded with bacteria by adding 350 μl of saturated OP50 to each plate and leaving the plates at room temperature for 2-3 days. On day 3 after synchronization, animals were placed on NGM plates containing 5-fluoro-2′deoxy-uridine (FUDR) (75 mM, unless stated otherwise) to inhibit growth of offspring.
# The following strains were used: dvls100[unc-54p::A-beta-1-42::unc-54 3′-UTR+mtl-2p::GFP] (GMC101). mtl-2p::GFP produces constitutive expression of GFP in intestinal cells. unc-54p::A-beta-1-42 expresses full-length human Aβ42 peptide in bodywall muscle cells that aggregates in vivo. Shifting L4 or young adult animals from 20 C° to 25 C° causes paralysis dvls15[pPD30.38 (unc-54 vector)+mtl-2::GFP (pCL26)] (CL2122), control strain for GMC101 (57). Phenotype apparently WT. C. elegans var Bristol (N2). Generation time is about 3 days. Brood size is about 350. Isolated from mushroom compost near Bristol, England. […]
# (§3) All populations were cultured at 20° C. and developmentally synchronized from a 4 h egg-lay. At 64-72 h post egg-lay (time zero) individuals were shifted to 23° C. or 25° C., and body movement assessed over time as indicated. At different ages, animals were washed out of the plates with M9 and spread over an un-seeded 6 cm plate, after which their movements were recorded at 30 fps using a home-made microscopic setup, at 0.75× magnification, for 30 s or 1 min. 200 animals were counted per experiment unless stated otherwise. […]
# (§4) Videos were elaborated using ImageJ (National Institutes of Health, Bethesda, Md., USA), and body bends were quantified using the wrMTrck plug-in (http://www.phage.dk/plugins/wrmtrck.html), developed by Jesper Søndergaard Pedersen.
# [2] = test system: C. elegans CL2122 (control-worm); assay: C. elegans motility assay, control-worm model; set-up: species or system Caenorhabditis elegans; settings: in vivo
# Procedure: as §2, with “On day 3 after synchronization, animals were placed on NGM plates containing 5-fluoro-2′deoxy-uridine (FUDR) (75 mM, unless stated otherwise) to inhibit growth of offspring.” left out
# as §3, §4
# [3] = 2 μM Aβ42, 4-fold excess of compound
smiles,measurement,setting,value
C=C(c1ccc(C(=O)O)cc1)c1cc2c(cc1C)C(C)(C)CCC2(C)C [bexarotene],increase of time to half-completion compared to Aβ42 alone,Aβ42; [3],factor of two
same,time to half-completion of the aggregation reaction,Aβ42; [3],4.50 ± 0.06 h
same,time for which unseeded aggregation was completely inhibited,"Aβ42; 2 μM Aβ42, 10-fold excess",15 h
same,effect on secondary pathways (k2k+),"Aβ42; 5 μM Aβ42, 5-25 μM bexarotene",no (or very little) detectable effect
same,primary nucleation rate constant kn,"Aβ42; 5 μM Aβ42, 5-25 μM bexarotene",specifically decreased
same,effect on Aβ42 aggregation,Aβ42; increasing concentrations of bexarotene,progressive delay
same,motility (frequency of body bends) of Aβ-worms,"[1]; 10 μM, two bursts at L1 and L4 larval stages",maintained completely; also recorded: Complete recovery
same,"motility of Aβ-worms, concentration dependence",[1]; 5 to 10 μM added at larval stages,concentration-dependent maintenance
same,effect on motility of Aβ-worms when added only at day 2,[1]; added only at day 2,did not show any detectable effect
same,effect in control-worm model,[2],did not show any effects
